Patent EP0336068A1, “Phenoxyalkoxy-3,4-dihydro-2H-1-benzopyran derivatives” (F. HOFFMANN-LA ROCHE AG, priority 1988, dated 1989)

System: Antibiotic-Induced Colitis in Hamsters
Assay: Antibiotic-induced colitis in hamsters (in vivo), survival
Design: species or system Syrian hamsters
Conditions: given orally at 20 micromoles per kilogram; colitis induced by 175 mg/kg clindamycin intraperitoneally; first dose about seven hours after injection, then twice a day for four more days; Hazard Ratio >1.0 = therapy prolongs survival versus vehicle
Protocol: Antibiotic-Induced Colitis in Hamsters (In Vivo):
Male Syrian hamsters (LUG), weighing 80 to 120 g, were each given a single dose of 175 mg/kg of clindamycin-phosphate or of clindamycin-hydrochloride intraperitoneally, to induce colitis. Approximately seven hours after injection, the animals wer given the test compound orally or intraperitoneally and the therapy was continued twice a day for a period of four more days. The effect of the therapy was measured by use of the Hazard Ratio, which is the ratio of the mortality of the animals treated with the test compound contained in a vehicle to the mortality of the animals treated with the vehicle containing none of the test compound. The mortality was determined for the test compound-treated groups and for the vehicle-treated groups, respectively, twice daily, and was evaluated by comparing the survival curves of each group. The Kaplan-Meier estimate of the survival curve was calculated for each group and the Mantel-Cox (logrank) test was used to compare the survival curve of each test compound-treated (therapy) group to that of the corresponding vehicle control group.

CCCCCCCCOC(=O)C1CCc2cc(C(C)=O)c(OCCCCCOc3ccc(C(C)=O)c(O)c3CCC)cc2O1 (racemic) [racemic 6-acetyl-7-[5-(4-acetyl-3-hydroxy-2-propylphenoxy)pentyloxy]-3,4-dihydro-2H-1-benzopyran-2-carboxylic acid n-octyl ester]
Hazard Ratio: 2.0
